Assay results from paper PMC5920042, “KH176 Safeguards Mitochondrial Diseased Cells from Redox Stress-Induced Cell Death by Interacting with the Thioredoxin System/Peroxiredoxin Enzyme Machinery” (Scientific Reports, 2018).
Values joined by “and” are separate entries in the source; they are usually repeats but may differ in a detail not shown here. Identical values can stand only once.

What was measured:
[1] = Single dose pharmacokinetics and bioavailability study; assay type: in vivo, male Sprague Dawley rats; conditions: rat, plasma
Experimental: (§1) Pharmacokinetics and toxicokinetics measurements were performed by the commercial Contract Research Organizations Sai Life Sciences and WuXi AppTec, respectively, according to their standard protocols and in accordance with relevant guidelines and regulations. C57 BL/6 mice, Sprague Dawley rats, and Beagle dogs were studied.

[2] = 28-day repeat oral dose toxicity study, toxicokinetics; assay type: in vivo, Beagle dogs; conditions: dog
Experimental: as §1

[3] = biological target: T1, human Prdx2 (Homo sapiens, UniProt P32119); experiment: Surface Plasmon Resonance binding; conditions: immobilized Prdx2, SPR
T1 construct: purchased Novus Biological NBC1-25855
T1 sequence (P32119 1-198): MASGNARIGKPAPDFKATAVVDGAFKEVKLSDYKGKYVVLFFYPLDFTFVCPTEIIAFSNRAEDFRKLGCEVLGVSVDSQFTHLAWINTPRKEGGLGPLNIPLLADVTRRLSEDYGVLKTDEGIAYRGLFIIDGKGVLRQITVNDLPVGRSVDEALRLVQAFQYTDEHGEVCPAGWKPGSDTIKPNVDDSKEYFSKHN
Experimental: Prior to protein immobilization all proteins were dialyzed against HBS-E (10 mM Hepes, 150 mM NaCl, 3 mM EDTA) buffer that was previously filtered through a 0.45 µM membrane using dialyze slide according to the manufacturer instruction. Human recombinant proteins peroxiredoxin 2 (Novus Biological NBC1-25855) and CCDC101 (Abcam Ab124547) were immobilized on CM5 (carboxymethylated dextran covalently attached to a gold surface) using the amine coupling method according to manufacturer’s recommendation (Biacore, GE Healthcare). Briefly the CM5 surface was activated with the mixture of EDC/NHS. Recombinant proteins at dilution 1 µg/ml in a corresponding buffer i.e. Peroxiredoxin 2 and CCDC101 in sodium acetate buffer 100 mM (pH 4.9). The control channel was activated with EDC/NHS. All channels were thereafter saturated with 0.1 M ethanolamine solution. KH176 andKH176m were solubilized in HBSS at stock solution 1 mM. They were thereafter further diluted in HBSS to final concentrations 0.31e-6M, 0.62e-6M, 1.25e-6M, 2.5e-6M and 5.0e-6M and injected over the flow cells at a flow rate equal to […] for 2 min, followed by a dissociation phase of 4 min. The sensor chip surface was regenerated with 1 mM HCl. The specific binding profiles were obtained after subtracting the response signal from the control empty channel and from blank-buffer injection. The specific binding was calculated using Biaeval 3 software (Biacore, GE Healthcare) with the postulate of 1:1 ligand/analyte interaction. Based on the Chi^2 value in regard to the Rmax (less than 10%) and the difference interval ±2.5 RU theoretic fitting compared to experimental results, best fitting algorithm between Langmuir or drifting base line was applied.

[4] = tested on: P4 cell line; experiment: Cellular ROS assay (DCFH-DA); assay type: cell-based, human; conditions: P4 cells, 24 h compound treatment
Experimental: The cells were then treated for 72 h (or shorter as indicated) with culture medium containing semi-logarithmic dilutions of the test compound. Alternatively, 3 × 10^3 cells/well were seeded when cells were treated for 24 h only. At the end of the incubation period, cells were loaded with 40 µM DCFH-DA (#D6883, Sigma-Aldrich). in M199 without phenol red for 30 min. The excess of the dye was washed with ice-cold M199 without phenol red and the cells were lysed with 100 µl/well of ice-cold 0.2% Triton X-100 in M199 without phenol red after 10 min incubation in ice. Cellular debris was spun down by centrifugation at 2600 g, 5 min, +4 °C and 90 µl/well of cell lysate were transferred to a black 96-wells plate and DCF fluorescence was measured on a scanning microplate reader (BMG FLUOstar Omega; Ex. 480 nm, Em. 520 nm).

[5] = KH176 10 mg/kg/dose BID oral, F, Day 1, plasma
[6] = KH176 10 mg/kg/dose BID oral, F, Day 28, plasma
[7] = KH176 10 mg/kg/dose BID oral, M, Day 1, plasma
[8] = KH176 10 mg/kg/dose BID oral, M, Day 28, plasma
[9] = KH176 25 mg/kg/dose BID oral, F, Day 1, plasma
[10] = KH176 25 mg/kg/dose BID oral, F, Day 28, plasma
[11] = KH176 25 mg/kg/dose BID oral, M, Day 1, plasma
[12] = KH176 25 mg/kg/dose BID oral, M, Day 28, plasma
[13] = KH176 62.5 mg/kg/dose BID oral, F, Day 1, plasma
[14] = KH176 62.5 mg/kg/dose BID oral, F, Day 28, plasma
[15] = KH176 62.5 mg/kg/dose BID oral, M, Day 1, plasma
[16] = KH176 62.5 mg/kg/dose BID oral, M, Day 28, plasma

What does the source list for `CC1=C(C)C(=O)C(CC[C@](C)(O)C(=O)N[C@@H]2CCCNC2)=C(C)C1=O` [KH176m]?
AUCINF ([1]; KH176 2 mg/kg i.v.): 206.1 ng·h/mL; AUClast ([1]; KH176 2 mg/kg i.v.): 150.2 ng·h/mL; T1/2 ([1]; KH176 2 mg/kg i.v.): 2.3 h; C0 (i.v.) ([1]; KH176 2 mg/kg i.v., back extrapolated): 59.7 ng/mL; AUCINF ([1]; KH176 10 mg/kg p.o.): 1503.2 ng·h/mL; AUClast ([1]; KH176 10 mg/kg p.o.): 1441.1 ng·h/mL; Cmax (p.o.) ([1]; KH176 10 mg/kg p.o.): 396.4 ng/mL; Tmax ([1]; KH176 10 mg/kg p.o.): 0.5 h; AUC0–24 h Ratio KH176m/KH176 ([2]; KH176 10 mg/kg/dose BID oral, F, Day 1): 0.864; AUC0–24 h [2, 5]: 7640 ng·h/mL; Cmax [2, 5]: 539 ng/mL; T1/2 [2, 5]: 5.4 h; AUC0–24 h Ratio KH176m/KH176 ([2]; KH176 10 mg/kg/dose BID oral, F, Day 28): 0.719; AUC0–24 h [2, 6]: 10500 ng·h/mL; Cmax [2, 6]: 786 ng/mL; T1/2 [2, 6]: 4.7 h; AUC0–24 h Ratio KH176m/KH176 ([2]; KH176 10 mg/kg/dose BID oral, M, Day 1): 0.848; AUC0–24 h [2, 7]: 13900 ng·h/mL; Cmax [2, 7]: 946 ng/mL; T1/2 [2, 7]: 4.7 h; AUC0–24 h Ratio KH176m/KH176 ([2]; KH176 10 mg/kg/dose BID oral, M, Day 28): 0.668; AUC0–24 h [2, 8]: 12700 ng·h/mL; Cmax [2, 8]: 916 ng/mL; T1/2 [2, 8]: 7.7 h; AUC0–24 h Ratio KH176m/KH176 ([2]; KH176 25 mg/kg/dose BID oral, F, Day 1): 0.845; AUC0–24 h [2, 9]: 35400 ng·h/mL; Cmax [2, 9]: 2200 ng/mL; AUC0–24 h Ratio KH176m/KH176 ([2]; KH176 25 mg/kg/dose BID oral, F, Day 28): 0.823; AUC0–24 h [2, 10]: 32900 ng·h/mL; Cmax [2, 10]: 2170 ng/mL; AUC0–24 h Ratio KH176m/KH176 ([2]; KH176 25 mg/kg/dose BID oral, M, Day 1): 0.967; AUC0–24 h [2, 11]: 41200 ng·h/mL; Cmax [2, 11]: 2610 ng/mL; T1/2 [2, 11]: 11.1 h; AUC0–24 h Ratio KH176m/KH176 ([2]; KH176 25 mg/kg/dose BID oral, M, Day 28): 0.970; AUC0–24 h [2, 12]: 38700 ng·h/mL; Cmax [2, 12]: 2270 ng/mL; T1/2 [2, 12]: 14.3 h; AUC0–24 h Ratio KH176m/KH176 ([2]; KH176 62.5 mg/kg/dose BID oral, F, Day 1): 0.908; AUC0–24 h [2, 13]: 57300 ng·h/mL; Cmax [2, 13]: 3550 ng/mL; T1/2 [2, 13]: 5.3 h; AUC0–24 h Ratio KH176m/KH176 ([2]; KH176 62.5 mg/kg/dose BID oral, F, Day 28): 0.938; AUC0–24 h [2, 14]: 80200 ng·h/mL; Cmax [2, 14]: 4990 ng/mL; T1/2 [2, 14]: 12.2 h; AUC0–24 h Ratio KH176m/KH176 ([2]; KH176 62.5 mg/kg/dose BID oral, M, Day 1): 0.743; AUC0–24 h [2, 15]: 68000 ng·h/mL; Cmax [2, 15]: 4020 ng/mL; T1/2 [2, 15]: 12.9 h; AUC0–24 h Ratio KH176m/KH176 ([2]; KH176 62.5 mg/kg/dose BID oral, M, Day 28): 0.835; AUC0–24 h [2, 16]: 85200 ng·h/mL; Cmax [2, 16]: 5250 ng/mL; Binding to Prdx2 ([3]; 0.31-5.0 µM): dose-dependent binding; Kd ([3]; read-out: Affinity (Kd), Langmuir one site model): 305 nM; IC50 [4]: 250 nM and 255 nM
